Active and inactive are the calls of the source. The rule behind the calls is not given here.
Legend:
PXR = PXR (Homo sapiens, UniProt O75469); test: Induction of PXR (unknown origin) assessed as fold increase in activity at 1 uM relative to control; assay type: toxicity; details: read-out: FC
BaF3 [1] = test: cells; details: Mus musculus, BaF3, 72 h
Mus musculus [2] = test: In vivo inhibition of MET phosphorylation in human EBC-1 cells xenografted in athymic BALB/c nude mouse at 20 to 60 mg/kg, po measured after 12 hrs post-dose; assay type: functional, organism-based; details: dose 20-60 mg/kg
BaF3 [3] = test: Antitumor activity against mouse BaF3 cells harboring TPR-D1228N mutant cells allografted in athymic BALB/c nude mouse at 20 mg/kg, po bid treated for 10 days relative to control; assay type: functional; details: BaF3, 240 h, time 10 day, read-out: TGI
[4] = Clearance in male Sprague-Dawley rat at 3 mg/kg, iv; assay type: ADME, organism-based; details: in vivo
[5] = biological target: 5-hydroxytryptamine receptor 1B (Homo sapiens) (UniProt P28222); test: Inhibition of 5-HT1B receptor (unknown origin) at 10 uM by CEREP analysis relative to control
Cytochrome P450 3A4 = Cytochrome P450 3A4 (Homo sapiens, UniProt P08684); test: Inhibition of CYP3A4 (unknown origin); assay type: ADME; details: human
[6] = AUClast in male Beagle dog at 10 mg/kg, po; assay type: ADME, organism-based, Canis lupus familiaris; details: in vivo
[7] = biological target: Macrophage-stimulating protein receptor (Homo sapiens) (UniProt Q04912); test: Inhibition of wild-type RON (unknown origin) at 100 nM by kinome selectivity analysis relative to control
Homo sapiens [8] = species on record: Homo sapiens; test: Inhibition of sodium channel site 2 (unknown origin) at 10 uM by CEREP analysis relative to control
Homo sapiens [9] = species on record: Homo sapiens; test: Inhibition of c-MET G1163R mutant (unknown origin) at 100 nM in presence of ATP by HotSpot Kinome Selectivity analysis
AhR = AhR (Homo sapiens, UniProt P35869); test: Induction of AhR (unknown origin) assessed as fold increase in activity at 1 uM relative to control; assay type: toxicity; details: read-out: FC
EBC-1 = test: Antitumor activity against human EBC-1 cells xenografted in athymic BALB/c nude mouse at 20 mg/kg, po bid treated for 21 days relative to control; assay type: functional; details: EBC-1, 504 h, time 21 day, read-out: TGI
Homo sapiens [10] = species on record: Homo sapiens; test: Inhibition of c-MET L1195X/F1200X mutant (unknown origin) at 100 nM in presence of ATP by HotSpot Kinome Selectivity analysis
[11] = AUClast in male Sprague-Dawley rat at 10 mg/kg, po; assay type: ADME, organism-based; details: in vivo
[12] = Oral bioavailability in male Beagle dog at 10 mg/kg; assay type: ADME, organism-based, Canis lupus familiaris; details: in vivo
[13] = Toxicity in rat assessed as drug tolerance measured for 28 days; details: in vivo, 672 h, time 28 day
BaF3 [14] = test: cells; details: Mus musculus, BaF3, 72 h; remark: listed apart in the source
[15] = biological target: 5-hydroxytryptamine receptor 2B (Homo sapiens) (UniProt P41595); test: Inhibition of 5-HT2B receptor (unknown origin) at 10 uM by CEREP analysis relative to control
BaF3 [16] = test: cells; details: Mus musculus, BaF3, 72 h; remark: listed apart in the source
[17] = Antitumor activity against human LU2503 cells xenografted in athymic BALB/c nude mouse at 2 mg/kg, po bid treated for 14 days relative to control; assay type: functional; details: LU2503, 336 h, time 14 day, read-out: TGI
[18] = biological target: Hepatocyte growth factor receptor (Homo sapiens, UniProt P08581); test: Inhibition of N-terminal GST-tagged wild-type human c-MET (956 to 1390 residues) extracted from baculovirus infected Sf21 cells using 5-FAM-KKKKEEIYFFF-CONH2 as substrate preincubated for 30 mins followed by ATP addition measured after 60 mins by fluorescence-based microfluidic mobility shift assay
BaF3 [19] = test: Antitumor activity against mouse BaF3 cells harboring TPR-D1228N mutant cells allografted in athymic BALB/c nude mouse at 2 mg/kg, po bid treated for 10 days relative to control; assay type: functional; details: BaF3, 240 h, time 10 day, read-out: TGI
[20] = biological target: T1, Alpha-2A adrenergic receptor (Homo sapiens) (UniProt P08913); test: Inhibition of alpha 2A adrenergic receptor (unknown origin) at 10 uM by CEREP analysis relative to control
T1 sequence (whole entry): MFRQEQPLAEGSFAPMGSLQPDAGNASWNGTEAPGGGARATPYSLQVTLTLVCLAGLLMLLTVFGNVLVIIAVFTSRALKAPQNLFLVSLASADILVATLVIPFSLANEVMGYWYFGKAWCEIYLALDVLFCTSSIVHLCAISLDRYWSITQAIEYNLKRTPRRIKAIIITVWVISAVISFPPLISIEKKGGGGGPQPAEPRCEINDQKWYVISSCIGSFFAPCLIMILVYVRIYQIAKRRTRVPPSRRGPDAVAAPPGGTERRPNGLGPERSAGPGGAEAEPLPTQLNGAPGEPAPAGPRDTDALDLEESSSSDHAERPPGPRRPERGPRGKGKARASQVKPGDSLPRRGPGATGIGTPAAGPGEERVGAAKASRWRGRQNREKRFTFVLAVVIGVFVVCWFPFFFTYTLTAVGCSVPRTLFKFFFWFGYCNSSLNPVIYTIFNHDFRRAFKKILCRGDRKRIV

hERG = hERG (Homo sapiens, UniProt Q12809); test: Inhibition of hERG; assay type: toxicity
Homo sapiens [21] = species on record: Homo sapiens; test: Inhibition of c-MET D1228X/Y1230X mutant (unknown origin) at 100 nM in presence of ATP by HotSpot Kinome Selectivity analysis
Mus musculus [22] = test: In vivo inhibition of MET phosphorylation in human LU2503 cells xenografted in athymic BALB/c nude mouse administered orally measured after 1 hr post-dose; assay type: functional, organism-based; details: dose 2-60 mg/kg, route po

Sequence of AhR (P35869 whole entry): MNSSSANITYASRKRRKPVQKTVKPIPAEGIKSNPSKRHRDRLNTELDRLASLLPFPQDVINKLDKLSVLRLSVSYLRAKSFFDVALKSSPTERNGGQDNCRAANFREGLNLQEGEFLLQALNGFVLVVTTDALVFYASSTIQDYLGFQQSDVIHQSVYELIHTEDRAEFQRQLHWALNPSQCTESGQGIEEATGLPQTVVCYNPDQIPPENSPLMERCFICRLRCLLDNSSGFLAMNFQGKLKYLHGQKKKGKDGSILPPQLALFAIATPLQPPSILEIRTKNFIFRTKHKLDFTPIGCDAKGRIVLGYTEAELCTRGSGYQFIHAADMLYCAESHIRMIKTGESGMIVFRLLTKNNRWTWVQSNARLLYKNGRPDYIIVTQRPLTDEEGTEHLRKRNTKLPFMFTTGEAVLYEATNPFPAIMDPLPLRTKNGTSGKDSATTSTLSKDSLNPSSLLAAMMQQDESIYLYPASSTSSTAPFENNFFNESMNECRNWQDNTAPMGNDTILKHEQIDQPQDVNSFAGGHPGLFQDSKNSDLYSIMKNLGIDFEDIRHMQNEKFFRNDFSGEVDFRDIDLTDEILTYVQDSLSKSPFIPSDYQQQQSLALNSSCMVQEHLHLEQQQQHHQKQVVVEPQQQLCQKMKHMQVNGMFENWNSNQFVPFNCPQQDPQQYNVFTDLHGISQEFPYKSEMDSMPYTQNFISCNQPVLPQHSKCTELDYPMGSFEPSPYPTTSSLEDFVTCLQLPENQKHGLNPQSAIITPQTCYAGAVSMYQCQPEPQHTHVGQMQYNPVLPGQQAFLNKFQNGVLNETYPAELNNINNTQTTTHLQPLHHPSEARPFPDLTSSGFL
Sequence of Hepatocyte growth factor receptor (P08581 whole entry, the tested form may be a part): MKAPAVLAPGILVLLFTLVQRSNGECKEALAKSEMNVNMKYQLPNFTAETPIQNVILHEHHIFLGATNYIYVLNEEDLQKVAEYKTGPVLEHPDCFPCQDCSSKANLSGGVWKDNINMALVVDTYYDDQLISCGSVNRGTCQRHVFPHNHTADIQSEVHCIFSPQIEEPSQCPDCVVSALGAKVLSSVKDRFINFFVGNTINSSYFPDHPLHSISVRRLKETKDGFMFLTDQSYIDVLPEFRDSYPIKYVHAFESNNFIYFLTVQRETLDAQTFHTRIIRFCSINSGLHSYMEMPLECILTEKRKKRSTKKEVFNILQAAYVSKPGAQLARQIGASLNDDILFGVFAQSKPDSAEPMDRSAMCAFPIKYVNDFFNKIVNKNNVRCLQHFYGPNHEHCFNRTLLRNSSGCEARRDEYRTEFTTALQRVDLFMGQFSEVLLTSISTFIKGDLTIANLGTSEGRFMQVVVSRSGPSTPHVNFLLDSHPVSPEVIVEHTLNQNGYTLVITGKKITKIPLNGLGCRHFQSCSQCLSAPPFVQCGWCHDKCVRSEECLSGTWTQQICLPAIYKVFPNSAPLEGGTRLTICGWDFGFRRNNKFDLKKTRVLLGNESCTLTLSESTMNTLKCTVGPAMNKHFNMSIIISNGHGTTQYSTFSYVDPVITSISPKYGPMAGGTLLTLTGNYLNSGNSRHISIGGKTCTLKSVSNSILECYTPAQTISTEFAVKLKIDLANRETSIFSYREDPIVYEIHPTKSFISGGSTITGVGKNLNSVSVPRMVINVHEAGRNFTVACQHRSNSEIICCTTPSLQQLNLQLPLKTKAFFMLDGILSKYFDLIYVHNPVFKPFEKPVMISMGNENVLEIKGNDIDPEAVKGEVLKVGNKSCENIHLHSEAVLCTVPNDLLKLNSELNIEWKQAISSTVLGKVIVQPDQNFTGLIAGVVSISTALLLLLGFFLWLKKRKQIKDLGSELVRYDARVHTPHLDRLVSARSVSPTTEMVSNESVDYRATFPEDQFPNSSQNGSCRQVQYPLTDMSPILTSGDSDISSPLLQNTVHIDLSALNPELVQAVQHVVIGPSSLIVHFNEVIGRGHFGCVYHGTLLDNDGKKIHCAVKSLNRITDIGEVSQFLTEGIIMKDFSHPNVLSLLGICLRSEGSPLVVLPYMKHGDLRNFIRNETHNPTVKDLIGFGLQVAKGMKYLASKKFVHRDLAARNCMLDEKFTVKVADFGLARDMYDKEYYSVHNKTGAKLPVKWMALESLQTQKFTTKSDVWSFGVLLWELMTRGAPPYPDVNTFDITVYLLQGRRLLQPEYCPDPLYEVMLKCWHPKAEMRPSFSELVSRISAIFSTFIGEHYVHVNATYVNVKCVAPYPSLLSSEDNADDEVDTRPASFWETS
Sequence of PXR (O75469 whole entry): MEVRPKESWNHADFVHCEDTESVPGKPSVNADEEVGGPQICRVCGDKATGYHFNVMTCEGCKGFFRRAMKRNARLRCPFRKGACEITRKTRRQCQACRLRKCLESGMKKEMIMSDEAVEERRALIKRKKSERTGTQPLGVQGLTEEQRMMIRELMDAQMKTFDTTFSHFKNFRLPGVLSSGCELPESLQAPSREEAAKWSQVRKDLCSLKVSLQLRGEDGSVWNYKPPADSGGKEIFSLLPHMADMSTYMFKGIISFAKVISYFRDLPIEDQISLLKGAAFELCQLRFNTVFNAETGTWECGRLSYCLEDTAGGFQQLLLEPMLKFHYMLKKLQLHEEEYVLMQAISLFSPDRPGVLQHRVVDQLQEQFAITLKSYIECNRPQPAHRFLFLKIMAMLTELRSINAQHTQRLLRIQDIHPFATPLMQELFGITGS
Sequence of 5-hydroxytryptamine receptor 2B (Homo sapiens) (P41595 whole entry): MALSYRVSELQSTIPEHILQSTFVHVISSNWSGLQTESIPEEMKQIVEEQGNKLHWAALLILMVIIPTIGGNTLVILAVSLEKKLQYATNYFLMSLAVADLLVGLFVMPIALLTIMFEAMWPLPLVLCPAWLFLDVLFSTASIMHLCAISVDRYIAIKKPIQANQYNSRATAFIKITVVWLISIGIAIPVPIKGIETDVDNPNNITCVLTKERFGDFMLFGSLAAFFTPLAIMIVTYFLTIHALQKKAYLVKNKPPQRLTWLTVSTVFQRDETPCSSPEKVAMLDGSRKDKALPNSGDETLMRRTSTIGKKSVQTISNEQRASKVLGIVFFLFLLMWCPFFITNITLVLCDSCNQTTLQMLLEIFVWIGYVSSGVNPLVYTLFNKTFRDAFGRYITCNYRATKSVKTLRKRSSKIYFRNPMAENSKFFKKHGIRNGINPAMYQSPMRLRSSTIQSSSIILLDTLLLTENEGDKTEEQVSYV
Sequence of Cytochrome P450 3A4 (P08684 whole entry): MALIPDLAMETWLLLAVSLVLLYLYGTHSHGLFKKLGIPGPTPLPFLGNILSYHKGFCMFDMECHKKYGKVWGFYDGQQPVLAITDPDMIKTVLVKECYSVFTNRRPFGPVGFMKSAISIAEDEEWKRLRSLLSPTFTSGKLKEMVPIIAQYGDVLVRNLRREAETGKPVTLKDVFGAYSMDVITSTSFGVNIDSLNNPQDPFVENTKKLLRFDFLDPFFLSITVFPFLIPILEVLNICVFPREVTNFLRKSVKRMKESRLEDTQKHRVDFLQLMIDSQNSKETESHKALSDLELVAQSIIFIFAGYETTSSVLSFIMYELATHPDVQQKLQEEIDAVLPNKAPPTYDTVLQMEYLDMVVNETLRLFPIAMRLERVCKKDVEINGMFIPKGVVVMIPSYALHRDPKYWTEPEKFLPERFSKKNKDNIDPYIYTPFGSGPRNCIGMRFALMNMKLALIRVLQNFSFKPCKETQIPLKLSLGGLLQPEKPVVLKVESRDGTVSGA
Sequence of hERG (Q12809 whole entry): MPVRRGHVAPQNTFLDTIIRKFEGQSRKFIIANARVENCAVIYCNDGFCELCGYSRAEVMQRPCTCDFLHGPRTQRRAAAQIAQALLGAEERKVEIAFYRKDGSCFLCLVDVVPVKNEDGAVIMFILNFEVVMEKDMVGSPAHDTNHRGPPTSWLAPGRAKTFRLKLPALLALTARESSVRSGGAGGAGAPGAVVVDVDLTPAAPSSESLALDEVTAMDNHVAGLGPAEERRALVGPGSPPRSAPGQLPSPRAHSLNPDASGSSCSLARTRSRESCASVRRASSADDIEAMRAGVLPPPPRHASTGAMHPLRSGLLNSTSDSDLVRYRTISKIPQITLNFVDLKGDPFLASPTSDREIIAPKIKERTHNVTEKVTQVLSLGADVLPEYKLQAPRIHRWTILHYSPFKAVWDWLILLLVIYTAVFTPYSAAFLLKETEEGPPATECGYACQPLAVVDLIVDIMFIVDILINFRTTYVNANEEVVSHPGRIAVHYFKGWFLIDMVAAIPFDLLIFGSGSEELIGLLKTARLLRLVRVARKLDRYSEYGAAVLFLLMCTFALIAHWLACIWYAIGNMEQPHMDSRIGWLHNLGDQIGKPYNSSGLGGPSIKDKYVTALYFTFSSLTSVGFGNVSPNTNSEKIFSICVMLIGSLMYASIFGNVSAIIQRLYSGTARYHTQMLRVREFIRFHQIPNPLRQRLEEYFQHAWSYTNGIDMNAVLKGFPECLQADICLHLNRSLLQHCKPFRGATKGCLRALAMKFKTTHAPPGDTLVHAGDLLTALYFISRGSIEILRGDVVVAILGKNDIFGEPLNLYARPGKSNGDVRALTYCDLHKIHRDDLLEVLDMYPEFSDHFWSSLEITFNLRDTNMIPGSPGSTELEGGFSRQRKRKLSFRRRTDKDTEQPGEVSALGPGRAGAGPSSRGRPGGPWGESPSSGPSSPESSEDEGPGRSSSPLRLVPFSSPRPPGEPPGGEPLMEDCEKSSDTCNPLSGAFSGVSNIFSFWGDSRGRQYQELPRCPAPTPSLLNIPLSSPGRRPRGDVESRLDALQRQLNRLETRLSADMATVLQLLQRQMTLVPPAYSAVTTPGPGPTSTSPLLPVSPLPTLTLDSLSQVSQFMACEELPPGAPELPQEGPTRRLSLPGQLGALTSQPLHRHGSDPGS

Q: Which fold induction at 1 µM (PXR) does the source give for COc1cc2nccc(Oc3c(F)cc(NC(=O)c4cnccc4OC)cc3F)c2cc1O[C@@H](C)CO here?
A: < 1.5

Q: What about the EC50 (BaF3 [1]) of the same molecule?
A: 51 nM

Q: And the inhibition (Mus musculus [2])?
A: Active

Q: And the inhibition in vivo at 20 mg/kg (BaF3 [3])?
A: 89%

Q: What about the clearance [4] of the same molecule?
A: 11.2 mL/min/kg

Q: What about the inhibition [5] of the same molecule?
A: -3%

Q: What about the “inhibition (INH)” value (Cytochrome P450 3A4) of the same molecule?
A: Not_active

Q: And the AUC(0-t) [6]?
A: 26400 ng·h/mL

Q: What about the inhibition [7] of the same molecule?
A: > 90%

Q: What about the inhibition (Homo sapiens [8]) of the same molecule?
A: 40%

Q: What about the inhibition (Homo sapiens [9]) of the same molecule?
A: 63%

Q: What about the fold induction at 1 µM (AhR) of the same molecule?
A: < 1.5

Q: What about the inhibition in vivo at 20 mg/kg (EBC-1) of the same molecule?
A: 88%

Q: What about the inhibition (Homo sapiens [10]) of the same molecule?
A: -4%

Q: What about the AUC(0-t) [11] of the same molecule?
A: 18600 ng·h/mL

Q: What about the bioavailability [12] of the same molecule?
A: 56%

Q: And the Activity [13]?
A: Non-toxic

Q: What about the EC50 (BaF3 [14]) of the same molecule?
A: 37 nM

Q: What about the inhibition [15] of the same molecule?
A: 48%

Q: What about the EC50 (BaF3 [16]) of the same molecule?
A: 0.7 nM

Q: And the inhibition in vivo at 2 mg/kg [17]?
A: 43%

Q: What about the IC50 [18] of the same molecule?
A: 0.2 nM

Q: What about the inhibition in vivo at 2 mg/kg (BaF3 [19]) of the same molecule?
A: 26%

Q: What about the inhibition [20] of the same molecule?
A: 6%

Q: What about the IC20 (hERG) of the same molecule?
A: 10000 nM

Q: What about the inhibition (Homo sapiens [21]) of the same molecule?
A: 49%

Q: What about the inhibition (Mus musculus [22]) of the same molecule?
A: Dose-dependent-effect
